Reference: the supplement of paper PMC10307832

Experiments:
Experiment in all cases: relative viability (nuclei count vs DMSO), 5 days (fraction); higher = more cells survive
SGI-1776 + AZD7762 = compound: CN1CCC(CNc2ccc3ncc(-c4cccc(OC(F)(F)F)c4)n3n2)CC1 [SGI-1776] + NC(=O)Nc1cc(-c2cccc(F)c2)sc1C(=O)N[C@H]1CCCNC1 [AZD7762] (partner 0.2 µM)
Procedure, shortened: (§1)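 For relative viability, nuclei counts in treated wells were divided by those in vehicle wells. Lung cancer cell lines had been pin-tool dosed in 1536-well plates the day after seeding and cultured for 5 days, then fixed and stained in one step (final 0.05% Triton X-100, 1% formaldehyde, 1 ug/ml Hoechst) and imaged at 4×. Doses were one drug alone or a fixed anchor-drug dose plus five library-drug doses (not always all listed) in √10 steps, and values are duplicate-plate medians.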

[1] = compound: C1COCCN1C2=NC(=NC3=C2OC4=C3C=CC=N4)C5=CC(=CC=C5)NC(=O)C6=CN=C(C=C6)N + COc1cccc2cc(-c3nc([C@H]4CC[C@H](C(=O)O)CC4)n4ncnc(N)c34)[nH]c12 [OSI-027] (partner 0.5 µM)
Procedure, shortened: as §1

Entinostat + Phenformin = compound: Nc1ccccc1NC(=O)c1ccc(CNC(=O)OCc2cccnc2)cc1 [Entinostat] + N=C(N)NC(=N)NCCc1ccccc1 [Phenformin] (partner 250 µM)
Procedure, shortened: as §1

Entinostat + OSI-027 = compound: Nc1ccccc1NC(=O)c1ccc(CNC(=O)OCc2cccnc2)cc1 [Entinostat] + COc1cccc2cc(-c3nc([C@H]4CC[C@H](C(=O)O)CC4)n4ncnc(N)c34)[nH]c12 [OSI-027] (partner 0.5 µM)
Procedure, shortened: as §1

Cell Line	relative viability (SGI-1776 + AZD7762; first compound 0.08 µM)	relative viability (SGI-1776 + AZD7762; first compound 0.8 µM)	relative viability (SGI-1776 + AZD7762; first compound 2.53 µM)	relative viability (SGI-1776 + AZD7762; first compound 8 µM)	relative viability ([1]; first compound 0.02 µM)	relative viability ([1]; first compound 0.06325 µM)	relative viability ([1]; first compound 0.2 µM)	relative viability ([1]; first compound 0.6325 µM)	relative viability ([1]; first compound 2 µM)	relative viability (Entinostat + Phenformin; first compound 0.02 µM)	relative viability (Entinostat + Phenformin; first compound 0.06325 µM)	relative viability (Entinostat + Phenformin; first compound 0.2 µM)	relative viability (Entinostat + Phenformin; first compound 0.6325 µM)	relative viability (Entinostat + Phenformin; first compound 2 µM)	relative viability (Entinostat + OSI-027; first compound 0.02 µM)	relative viability (Entinostat + OSI-027; first compound 0.06325 µM)	relative viability (Entinostat + OSI-027; first compound 0.2 µM)	relative viability (Entinostat + OSI-027; first compound 0.6325 µM)	relative viability (Entinostat + OSI-027; first compound 2 µM)
LK-2	0.423	0.54	0.324	0.236	0.196	0.178	0.165	0.216	0.196	0.497	0.761	0.576	0.383	0.32	0.221	0.187	0.188	0.188	0.18
NCI-H1651	0.537	0.519	0.494	0.419	0.643	0.812	0.703	0.617	0.472	0.326	0.371	0.453	0.335	0.185	0.747	0.653	0.71	0.608	0.542
LC-2-ad	0.886	0.901	0.771	0.691	0.834	0.981	0.747	0.72	0.625	0.568	0.566	0.579	0.365	0.208	0.768	0.842	0.578	0.349	0.27
NCI-H1734	0.616	0.687	0.654	0.568	0.719	0.638	0.576	0.542	0.417	0.439	0.509	0.488	0.342	0.315	0.635	0.772	0.59	0.5	0.488
NCI-H441	1.25	1.2	1.07	1.13	0.588	0.511	0.507	0.58	0.327	0.679	1.03	0.757	0.397	0.184	0.592	0.562	0.592	0.308	0.233
NCI-H727	0.696	0.739	0.807	0.583	0.542	0.517	0.624	0.588	0.541	0.457	0.689	0.581	0.436	0.43	0.679	0.808	0.5	0.493	0.398
NCI-H23	0.252	0.278	0.281	0.235	0.605		0.435	0.351	0.398	0.71	0.667	0.796	0.762	0.501	0.711	0.774	0.648	0.463	0.287
NCI-H1395	0.424	0.432	0.393	0.402	0.562	0.49	0.523	0.604	0.519	0.441	0.494	0.421	0.417	0.416	0.716	0.764	0.583	0.647	0.505
NCI-H596	1.17	1.15	0.984	0.897	0.674	0.735	0.65	0.526	0.373	0.752	0.74	0.823	0.734	0.554	0.716	0.804	0.708	0.443	0.412
NCI-H460	0.717	0.669	0.572	0.707	0.578	0.639	0.505	0.237	0.185	0.511	0.479	0.298	0.0601	0.0314	0.606	0.575	0.335	0.0521	0.0268
